Holding throughout (type): cell-based
Experiment [1] relates to IL3000 T. congolense (drug sensitive) strain. Description: In vitro Alamar Blue 72 h drug sensitivity assay for T. congolense. The following applies: Trypanosoma congolense; bloodstream form, 69 h + 3 h resazurin, 34° C.; classes A-C; read-out: IC50: I Org. Growth T. congolense IL-3000, 3 d. In a few lines:
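Bloodstream-form trypanosomes in HMI medium with 20% bovine serum, exposed to compound for 69 h at 34 °C, 5% CO2, then resazurin for 3 h more. Fluorescence read at 536/588 nm. IC50 from 11-point sigmoidal dose-response curves, at least three independent runs.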
(The colour change of resazurin is a common sign of viable cells or microbes.)

The subject of experiment [2] is promastigote forms of L. major. Description: Leishmania major promastigote growth inhibition assay (Alamar Blue). The settings on record: promastigotes, 44 hours + 4 hours Alamar Blue, read-out: IC50: I Org. promastigote Growth L. major, 2 d. Put shortly: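 Early-log L. major promastigotes (5,000/well) in Schneider's medium with 20% FBS incubated with compound 44 h at 28° C; drug solutions in DMSO were 10,000 or 1,000 ng/ml before dispensing. Alamar Blue added 4 h, fluorescence at 560/590 nm gives percent growth inhibition; IC50 determined for compounds inhibiting ≥50%.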

The subject of experiment [3] is TdTomato-modified T. cruzi (CL strain) in Vero cells. The experiment in a line: In vitro IC50 measurement of T. cruzi amastigote killing using TdTomato-modified T. cruzi (CL strain). The following applies: Trypanosoma cruzi, 72 h, fluorescence, read-out: IC50: I Org. amastigote Growth T. cruzi CL TdTomato, 3 d. Put shortly: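 Vero cells were infected with tdTomato-expressing CL-strain parasites and dosed at 5 uM–5 nM. Fluorescence (ex 544/em 612 nm) was read at day 0 and again after 72 h at 37 °C, with day 0 values subtracted. IC50 and IC90 came from nonlinear regression.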

Where only a bound is given, the exact number is not on record here.

In the case of `COc1ccc(-n2nnc(C(=O)Nc3ccc4c(c3)B(O)OC4C)c2C)cc1` (stereo not drawn) [Example 19, N-(1-hydroxy-3-methyl-1,3-dihydrobenzo[c][1,2]oxaborol-6-yl)-1-(4-methoxyphenyl)-5-methyl-1H-1,2,3-triazole-4-carboxamide], the IC50 – broadly, the midpoint of a concentration-inhibition curve – is 100 to 300 nM in experiment [1], 600 to 2500 nM in experiment [2] and 600 to 1000 nM in experiment [3].
For `COc1ccc(-n2nnc(C(=O)Nc3ccc4c(c3)B(O)OC43CCC3)c2C)cc1` [Example 20, N-(1-hydroxy-1H-spiro[benzo[c][1,2]oxaborole-3,1′-cyclobutan]-6-yl)-1-(4-methoxyphenyl)-5-methyl-1H-1,2,3-triazole-4-carboxamide], in that order: 310 to 100000 nM, < 600 nM and 1100 to 10000 nM.
For `COc1ccc(-n2cc(C(=O)Nc3ccc4c(c3)B(O)OC4)nn2)cc1` [Example 21, N-(1-hydroxy-1,3-dihydrobenzo[c][1,2]oxaborol-6-yl)-1-(4-methoxyphenyl)-1H-1,2,3-triazole-4-carboxamide] the same measures were < 100 nM, < 600 nM and < 600 nM.
With `COc1ccc(-n2cc(C(=O)Nc3ccc4c(c3)B(O)OC4C)nn2)cc1` (stereo not drawn) [Example 22, N-(1-hydroxy-3-methyl-1,3-dihydrobenzo[c][1,2]oxaborol-6-yl)-1-(4-methoxyphenyl)-1H-1,2,3-triazole-4-carboxamide], the IC50 was 100 to 300 nM in experiment [1], < 600 nM in experiment [2] and < 600 nM in experiment [3].
Turning to `CC1OB(O)c2cc(NC(=O)c3cn(-c4ccccn4)nn3)ccc21` (stereo not drawn) [Example 23, N-(1-hydroxy-3-methyl-1,3-dihydrobenzo[c][1,2]oxaborol-6-yl)-1-(pyridin-2-yl)-1H-1,2,3-triazole-4-carboxamide], the IC50 in experiment [1] was < 100 nM; in experiment [2] it was < 600 nM; in experiment [3], < 600 nM.
Regarding `Cc1c(C(=O)Nc2ccc3c(c2)B(O)OC3C)nnn1-c1ccccn1` (stereo not drawn) [Example 24, N-(1-hydroxy-3-methyl-1,3-dihydrobenzo[c][1,2]oxaborol-6-yl)-5-methyl-1-(pyridin-2-yl)-1H-1,2,3-triazole-4-carboxamide], the values for the IC50 in experiment [1], in experiment [2] and in experiment [3] were < 100 nM, 600 to 2500 nM and < 600 nM, respectively.
With `COc1ccc(-n2cc(C(=O)Nc3ccc4c(c3)B(O)OC43CCC3)nn2)cc1` [Example 25, N-(1-hydroxy-1H-spiro[benzo[c][1,2]oxaborole-3,1′-cyclobutan]-6-yl)-1-(4-methoxyphenyl)-1H-1,2,3-triazole-4-carboxamide], the results for the IC50 in experiment [1], in experiment [2] and in experiment [3] were 310 to 100000 nM, 2510 to 20000 nM and 600 to 1000 nM, respectively.
For `O=C(Nc1ccc2c(c1)B(O)OC21CCC1)c1cn(-c2ccccn2)nn1` [Example 26, N-(1-hydroxy-1H-spiro[benzo[c][1,2]oxaborole-3,1′-cyclobutan]-6-yl)-1-(pyridin-2-yl)-1H-1,2,3-triazole-4-carboxamide] the same measures were 310 to 100000 nM, 2510 to 20000 nM and 1100 to 10000 nM.
For `O=C(Nc1ccc2c(c1)B(O)OC2)c1cn(-c2ccccn2)nn1` [Example 61, N-(1-hydroxy-1,3-dihydrobenzo[c][1,2]oxaborol-6-yl)-1-(pyridin-2-yl)-1H-1,2,3-triazole-4-carboxamide] the same measures were < 100 nM, < 600 nM and < 600 nM.
For `Cc1c(C(=O)Nc2ccc3c(c2)B(O)OC3)nnn1-c1ccccn1` [Example 84, N-(1-hydroxy-1,3-dihydrobenzo[c][1,2]oxaborol-6-yl)-5-methyl-1-(pyridin-2-yl)-1H-1,2,3-triazole-4-carboxamide] the same measures were < 100 nM, < 600 nM and 600 to 1000 nM.
Take `Cc1c(C(=O)Nc2ccc3c(c2)B(O)OC3)nnn1-c1cccnc1` [Example 93, N-(1-hydroxy-1,3-dihydrobenzo[c][1,2]oxaborol-6-yl)-5-methyl-1-(pyridin-3-yl)-1H-1,2,3-triazole-4-carboxamide]: the 50% inhibitory concentration (IC50) in experiment [1] fell in the range of 100 to 300 nM; in experiment [2], 2510 to 20000 nM; in experiment [3] it was 1100 to 10000 nM.

(Values after US11691992B2 (Anacor Pharmaceuticals, Inc., priority 2017, dated 2023).)
